Patent US20240294533A1, “2-(HET)ARYL-SUBSTITUTED CONDENSED HETEROCYCLE DERIVATIVES AS PEST CONTROL AGENTS” (Bayer Aktiengesellschaft, priority 2021, published 2024)

Assays:
Assay type in all cases: in vivo
Ctenocephalides felis = Ctenocephalides felis oral test; details: 100 ppm, oral via cattle blood, after 2 days
Method: Ctenocephalides felis—Oral Test Solvent: dimethyl sulfoxide An appropriate active ingredient formulation is produced by mixing 10 mg of active ingredient with 0.5 ml of dimethyl sulfoxide. Dilution with citrated cattle blood gives the desired concentration. About 20 unfed adult cat fleas (Ctenocephalides felis) are placed into a chamber which is closed at the top and bottom with gauze. Onto the chamber is placed a metal cylinder with its bottom end closed with parafilm. The cylinder contains the blood/active ingredient formulation, which can be imbibed by the fleas through the parafilm membrane. The cylinder is heated to 37° C., while the flea chambers are kept at room temperature. After 2 days, the kill rate in % is determined relative to the untreated control. 100% means that all of the fleas have been killed; 0% means that none of the fleas have been killed.

Lucilia cuprina = Lucilia cuprina test; details: 100 ppm, L1 larvae, after 2 days
Method: Lucilia cuprina Test Solvent: dimethyl sulfoxide An appropriate active ingredient formulation is produced by mixing 10 mg of active ingredient with 0.5 ml of dimethyl sulfoxide and diluting the concentrate with water to the desired concentration. About 20 L1 larvae of the Australian sheep blowfly (Lucilia cuprina) are transferred into a test vessel containing minced horsemeat and the active ingredient formulation of the desired concentration. After 2 days, the kill rate in % is determined relative to the untreated control. 100% means that all the larvae have been killed; 0% means that no larvae have been killed.

Myzus persicae = Myzus persicae oral test; details: 4 ppm, after 5 days
Method: Myzus persicae—Oral Test Solvent: 100 parts by weight of acetone An appropriate active ingredient formulation is produced by dissolving 1 part by weight of active ingredient with the specified parts by weight of solvent and making the solution up to the desired concentration with water. 50 μl of the active ingredient formulation is transferred into microtitre plates and made up to a final volume of 200 μl with 150 μl of IPL41 insect medium (33%+15% sugar). Subsequently, the plates are sealed with parafilm, which a mixed population of green peach aphids (Myzus persicae) within a second microtitre plate is able to puncture and imbibe the solution. After 5 days, efficacy in % is determined. 100% means that all the aphids have been killed; 0% means that no aphids have been killed.

Spodoptera frugiperda [1] = assay: Spodoptera frugiperda spray test (maize leaf discs); details: Spodoptera frugiperda, foliar, 168 h, after 7 days, read-out: efficacy
Outline: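 Maize leaf discs sprayed with compound formulated in acetone/DMF with alkylaryl polyglycol ether emulsifier (1000 ppm) in water, then infested with fall armyworm caterpillars after drying. Efficacy (% caterpillars killed) scored after 7 days; 100% means all killed, 0% none.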

Diabrotica balteata = Diabrotica balteata drench test; details: 20 ppm, soil drench, maize, after 8 days
Description: Diabrotica balteata—Drench Test Solvent: 7 parts by weight of dimethylformamide Emulsifier: 2 parts by weight of alkylaryl polyglycol ether An appropriate active ingredient formulation is produced by mixing 1 part by weight of active ingredient with the specified amounts of solvent and emulsifier, and diluting the concentrate to the desired concentration with water, it being necessary to take account of the volume of soil which is drenched. It should be ensured that a concentration of 40 ppm of emulsifier in the soil is not exceeded. Further test concentrations are produced by diluting with water. 5 […] (Zea mays) in each case are sown into pots filled with earth, and the next day the pots are watered with the active ingredient preparation of the desired concentration. After one day, about 25 L2 larvae of the banded cucumber beetle (Diabrotica balteata) are added. After 8 days, efficacy in % is determined. 100% means that all 5 plants have germinated and grown; 0% means that none of the plants has emerged.

Nezara viridula = Nezara viridula spray test (infected barley plants sprayed); details: 100 g ai/ha, after 4 days
Description: Nezara viridula—Spray Test Solvent: 52.5 parts by weight of acetone • 7 parts by weight of dimethylformamide Emulsifier: alkylaryl polyglycol ether An appropriate active ingredient formulation is produced by dissolving 1 part by weight of active ingredient with the stated parts by weight of solvent and making the solution up to the desired concentration with water containing an emulsifier concentration of 1000 ppm. Further test concentrations are produced by diluting the formulation with emulsifier-containing water. If the addition of ammonium salts or/and penetrants is required, these are each added in a concentration of 1000 ppm to the formulation solution. Barley plants (Hordeum vulgare) infected with larvae of the Southern green shield bug (Nezara viridula) are sprayed with an active ingredient formulation of the desired concentration. After 4 days, efficacy in % is determined. 100% means that all of the shield bugs have been killed; 0% means that none of the shield bugs have been killed.

Plutella xylostella = Plutella xylostella spray test (PLUTMA), comparative; details: 168 h, 0.16 ppm, cabbage leaves, after 7 days
Description: Plutella xylostella Spray Test (PLUTMA) Solvent: 14 parts by weight of dimethylformamide Emulsifier: alkylaryl polyglycol ether An appropriate active ingredient formulation is produced by dissolving 1 part by weight of active ingredient with the stated parts by weight of solvent and making the solution up to the desired concentration with water containing an emulsifier concentration of 1000 ppm. Further test concentrations are produced by diluting the formulation with emulsifier-containing water. If the addition of ammonium salts or/and penetrants is required, these are each added in a concentration of 1000 ppm to the formulation solution. Cabbage leaves (Brassica oleracea) are sprayed with an active ingredient formulation of the desired concentration and infected with larvae of the diamondback moth (Plutella xylostella). After 7 days, the kill in % is determined. 100% means that all caterpillars have been killed; 0% means that none of the caterpillars have been killed.

Spodoptera frugiperda [2] = assay: Spodoptera frugiperda spray test (SPODFR), comparative; details: 168 h, cotton leaves, after 7 days, read-out: % Efficacy
Description: Spodoptera frugtiperda—Spray Test (SPODFR) Solvent: 14 parts by weight of dimethylformamide Emulsifier: alkylaryl polyglycol ether An appropriate active ingredient formulation is produced by dissolving 1 part by weight of active ingredient with the stated parts by weight of solvent and making the solution up to the desired concentration with water containing an emulsifier concentration of 1000 ppm. Further test concentrations are produced by diluting the formulation with emulsifier-containing water. If the addition of ammonium salts or/and penetrants is required, these are each added in a concentration of 1000 ppm to the formulation solution. Cotton leaves (Gossypium hirsutum) are sprayed with an active ingredient formulation of the desired concentration and populated with caterpillars of the armyworm (Spodoptera frugiperda). After 7 days, the kill in % is determined. 100% means that all caterpillars have been killed; 0% means that none of the caterpillars have been killed.

In the case of CCS(=O)(=O)c1ccc(-n2ncn(-c3ccc(Cl)cc3)c2=O)nc1-c1nc2cc(C(F)(F)C(F)(F)F)cnc2n1C [Example I-23], the “efficacy (kill rate)” value (Ctenocephalides felis) is reported as 100%, the “efficacy (kill rate)” value (Lucilia cuprina) is reported as 100% and the efficacy (Myzus persicae) is reported as 100%. For the same molecule, the pest or weed control at 100 g/ha (Spodoptera frugiperda [1]) was 100%, the efficacy (Diabrotica balteata) was 100% and the efficacy (Nezara viridula) was 100%. It also gave an efficacy at 0.16 ppm (Plutella xylostella) of 90% and an Emax at 0.8 ppm (Spodoptera frugiperda [2]) of 100%.
